How the values were obtained:
PfCelTOS [1] = assay: Antibody endpoint titers (IgG, IgG1, IgG2a) after immunization with PfCelTOS vaccine compositions; conditions: BALB/c mice; SE dose 0.02%-2% experiment; GLA (SE or AF) compared to same vaccine composition without GLA
Method: On the day of immunization, the emulsion was diluted with PBS to the specified oil concentrations and mixed with antigen and GLA-AF (where applicable). […] Throughout the manuscript the emulsion dose is referred to as the % v/v of oil in the final vaccine formulation; the ratio of oil to emulsifier is kept constant at all doses.
Endpoint titer was determined using Prism (GraphPad Software, La Jolla, Calif.) following a sigmoidal fit (variable slope) of the values determined at dilution, with the endpoint titer corresponding to a cutoff value (C) determined as described previously [10] with C=X+SDf, where X is the average and SD is the standard deviation of the negative sera control plate, and f is the multiplier at the 99.9% confidence level. A cutoff value of 0.1 OD was assigned if the cutoff value as determined above was less than 0.1 OD. On rare occasions, individual plate wells registered an abnormally high reading near the highest dilutions. These were excluded from the sigmoidal fit by employing the Grubb's test on the suspect value, comparing to the 4 dilutions surrounding the dilution in question at the 99% confidence level [11].
BALB/c mice were immunized 3 times with PfCelTOS vaccine compositions with 3 weeks between injections.

PfCelTOS [2] = assay type: in vivo, Plasmodium falciparum; conditions: BALB/c mice; SE dose 0.5%-2% experiment; GLA- or Montanide-containing vaccines

For glucopyranosyl lipid adjuvant [GLA], the IgG2a response (PfCelTOS [1]) was “stronger” and the antibody-secreting plasma cells (PfCelTOS [2]) was “Higher numbers”.

— US11510875B2, “Adjuvant formulations comprising TLR4 agonists and methods of using the same” (priority 2012, dated 2022)
